In ChEMBL document CHEMBL1201862, “PubChem BioAssay data set” (2004):
Calls of active or inactive are those of the source.

Tests used:
[1] = biological target: Large T antigen (Simian virus 40, UniProt P03070); type: functional, Betapolyomavirus macacae;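 also: Confirmatory-stage PubChem screen for compounds that inhibit SV40 T antigen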
[2] = biological target: T1, Cytochrome P450 1A2 (Homo sapiens, UniProt P05177);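 also: PubChem cytochrome P450 panel assay, CYP1A2 panel member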
T1 sequence (P05177 whole entry): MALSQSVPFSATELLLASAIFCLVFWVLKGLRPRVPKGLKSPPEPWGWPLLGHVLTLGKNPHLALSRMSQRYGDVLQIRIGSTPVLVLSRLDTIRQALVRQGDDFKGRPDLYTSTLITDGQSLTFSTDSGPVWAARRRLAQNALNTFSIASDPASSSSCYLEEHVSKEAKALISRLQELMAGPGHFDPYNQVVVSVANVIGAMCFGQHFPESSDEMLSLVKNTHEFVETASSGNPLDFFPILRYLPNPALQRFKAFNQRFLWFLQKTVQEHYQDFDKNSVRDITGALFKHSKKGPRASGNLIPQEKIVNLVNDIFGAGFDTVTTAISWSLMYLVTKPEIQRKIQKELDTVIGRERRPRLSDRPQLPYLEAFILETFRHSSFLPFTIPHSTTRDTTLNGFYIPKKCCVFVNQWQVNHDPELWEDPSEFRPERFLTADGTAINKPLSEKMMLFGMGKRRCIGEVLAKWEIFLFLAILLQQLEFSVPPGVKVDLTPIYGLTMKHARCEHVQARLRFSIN

[3] = biological target: Cytochrome P450 2D6 (Homo sapiens, UniProt P10635);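 also: CYP2D6 member of a cytochrome P450 panel assay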
Cytochrome P450 2D6, sequence (P10635 whole entry): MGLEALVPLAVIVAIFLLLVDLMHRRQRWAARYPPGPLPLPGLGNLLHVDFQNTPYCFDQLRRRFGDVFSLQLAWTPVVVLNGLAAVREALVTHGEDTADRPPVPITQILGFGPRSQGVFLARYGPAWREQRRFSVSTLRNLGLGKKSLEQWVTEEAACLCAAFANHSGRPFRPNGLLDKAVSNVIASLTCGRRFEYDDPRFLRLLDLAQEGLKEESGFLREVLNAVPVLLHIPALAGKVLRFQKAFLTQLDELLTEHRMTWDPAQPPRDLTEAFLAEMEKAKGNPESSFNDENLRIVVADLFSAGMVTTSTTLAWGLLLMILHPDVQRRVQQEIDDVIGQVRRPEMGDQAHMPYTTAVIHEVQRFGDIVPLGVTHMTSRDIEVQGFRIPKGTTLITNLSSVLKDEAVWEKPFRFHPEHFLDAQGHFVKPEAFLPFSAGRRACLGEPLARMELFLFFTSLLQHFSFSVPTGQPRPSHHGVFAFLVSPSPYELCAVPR

[4] = biological target: Cytochrome P450 2C9 (Homo sapiens, UniProt P11712)
Cytochrome P450 2C9, sequence (P11712 whole entry): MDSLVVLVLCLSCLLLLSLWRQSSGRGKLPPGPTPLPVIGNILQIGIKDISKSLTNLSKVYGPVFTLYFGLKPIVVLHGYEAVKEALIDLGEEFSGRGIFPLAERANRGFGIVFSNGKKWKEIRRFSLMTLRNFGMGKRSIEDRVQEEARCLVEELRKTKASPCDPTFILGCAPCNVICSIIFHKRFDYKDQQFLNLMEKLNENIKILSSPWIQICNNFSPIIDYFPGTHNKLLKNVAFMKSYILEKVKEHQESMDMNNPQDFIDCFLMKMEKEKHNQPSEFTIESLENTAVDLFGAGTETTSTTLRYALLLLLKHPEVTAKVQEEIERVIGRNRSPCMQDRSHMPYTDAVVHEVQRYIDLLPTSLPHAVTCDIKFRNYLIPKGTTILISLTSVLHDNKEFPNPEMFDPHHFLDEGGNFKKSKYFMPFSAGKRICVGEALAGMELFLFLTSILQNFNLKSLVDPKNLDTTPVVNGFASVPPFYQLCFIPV

[5] = viability of HCT116 lacking mutant beta-catenin – cell-based, human colon tumor, dose response (AID 1045); type: functional;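 also: HCT116 colon tumor cells with beta catenin knocked out; cells exposed to compound for 60 hours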
[6] = viability of PTEN-deleted HCT116 cells – cell-based, HCT116 PTEN knockout, dose response (AID 1047); type: functional;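 also: HCT116 colon tumor cells with PTEN knocked out; cells exposed to compound for 60 hours before readout; potency for loss of cell viability measured by luminescence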
[7] = tested on: P388; experiment: cells; type: functional; conditions: Mus musculus
[8] = biological target: Paired box protein Pax-8 (Homo sapiens, UniProt Q06710); experiment: PAX8 transcriptional activity inhibition in RMG-I – RMG-I cells, luciferase, cherry-pick, dose response (AID 687027); type: functional, cell-based;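 also: luciferase reporter driven by Pax8 target thyroperoxidase promoter measured by SteadyGlo luminescence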
Paired box protein Pax-8, sequence (Q06710 whole entry): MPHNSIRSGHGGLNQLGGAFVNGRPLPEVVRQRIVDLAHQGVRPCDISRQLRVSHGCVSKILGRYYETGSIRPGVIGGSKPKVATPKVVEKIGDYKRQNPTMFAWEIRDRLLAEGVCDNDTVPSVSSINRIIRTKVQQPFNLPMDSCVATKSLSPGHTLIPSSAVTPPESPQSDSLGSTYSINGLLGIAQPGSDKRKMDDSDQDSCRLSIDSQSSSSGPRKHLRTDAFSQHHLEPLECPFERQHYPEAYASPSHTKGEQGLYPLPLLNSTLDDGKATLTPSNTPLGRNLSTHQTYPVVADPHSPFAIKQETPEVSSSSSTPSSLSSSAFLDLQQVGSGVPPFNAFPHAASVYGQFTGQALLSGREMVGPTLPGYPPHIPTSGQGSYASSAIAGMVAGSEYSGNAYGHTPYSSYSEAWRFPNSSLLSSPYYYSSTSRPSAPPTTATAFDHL

[9] = tested on: P388/ADR; experiment: cells; type: functional; conditions: Mus musculus
[10] = tested on: SN12K1; experiment: cells; type: functional; conditions: Homo sapiens
[11] = biological target: Genome polyprotein (dengue virus type 2, UniProt P29990); experiment: flavivirus cap methylation enzyme inhibition – biochemical, confirmation dose response, primary screen (AID 588689); type: functional
Genome polyprotein, sequence (P29990 2492-3391 limits assumed): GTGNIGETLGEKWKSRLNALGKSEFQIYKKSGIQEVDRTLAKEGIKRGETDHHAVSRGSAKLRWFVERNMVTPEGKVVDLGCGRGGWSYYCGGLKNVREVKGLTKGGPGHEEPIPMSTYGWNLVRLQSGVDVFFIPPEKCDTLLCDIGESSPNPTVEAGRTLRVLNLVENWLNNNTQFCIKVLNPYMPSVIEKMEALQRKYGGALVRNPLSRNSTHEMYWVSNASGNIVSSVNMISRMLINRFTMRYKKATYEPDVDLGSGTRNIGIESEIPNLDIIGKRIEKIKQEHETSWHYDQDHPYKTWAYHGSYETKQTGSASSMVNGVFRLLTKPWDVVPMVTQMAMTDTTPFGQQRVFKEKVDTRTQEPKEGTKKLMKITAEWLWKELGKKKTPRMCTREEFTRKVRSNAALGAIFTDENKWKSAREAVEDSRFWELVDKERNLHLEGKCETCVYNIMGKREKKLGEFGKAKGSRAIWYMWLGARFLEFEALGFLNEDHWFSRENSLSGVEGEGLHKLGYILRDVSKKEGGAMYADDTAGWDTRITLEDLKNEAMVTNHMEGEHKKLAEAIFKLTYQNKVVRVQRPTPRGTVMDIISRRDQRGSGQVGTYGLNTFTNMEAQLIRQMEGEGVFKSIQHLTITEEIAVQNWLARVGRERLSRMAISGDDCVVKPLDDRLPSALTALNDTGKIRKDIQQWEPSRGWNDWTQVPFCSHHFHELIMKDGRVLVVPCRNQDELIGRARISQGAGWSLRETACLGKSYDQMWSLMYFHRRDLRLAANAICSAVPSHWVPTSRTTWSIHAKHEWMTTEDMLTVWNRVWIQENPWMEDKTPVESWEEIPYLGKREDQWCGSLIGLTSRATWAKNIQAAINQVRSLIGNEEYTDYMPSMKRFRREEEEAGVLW

[12] = Luminescence Cell-Based Dose Retest to Confirm Inhibitors of Cancer Stem Cells. [Related pubchem assays (depositor defined):AID2717, AID2721]; type: functional; conditions: Homo sapiens
[13] = intracellular Trypanosoma cruzi inhibitors in host cells – cell-based, plate reader, cherry-pick samples, set 3, dose response (AID 651818); type: functional;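 also: compounds incubated with infected cells for about four days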
[14] = non-specific 3'UTR reporter inhibition in Clone20-Shn3RL – cell-based, Renilla luciferase, cherry-picked, counter-screen for Shn3 inhibitor project, dose response (AID 624133); type: functional
[15] = reduction of Shn3 3'UTR-driven luciferase in osteoblasts – cell-based, Clone20 osteoblasts, firefly luciferase, cherry-picked, dose response (AID 624132); type: functional;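 also: firefly luciferase luminescence from reporter carrying the Shn3 3'UTR in osteoblasts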
[16] = biological target: T2, Protein skinhead-1 (Caenorhabditis elegans, UniProt P34707); type: functional
T2 sequence (P34707 whole entry): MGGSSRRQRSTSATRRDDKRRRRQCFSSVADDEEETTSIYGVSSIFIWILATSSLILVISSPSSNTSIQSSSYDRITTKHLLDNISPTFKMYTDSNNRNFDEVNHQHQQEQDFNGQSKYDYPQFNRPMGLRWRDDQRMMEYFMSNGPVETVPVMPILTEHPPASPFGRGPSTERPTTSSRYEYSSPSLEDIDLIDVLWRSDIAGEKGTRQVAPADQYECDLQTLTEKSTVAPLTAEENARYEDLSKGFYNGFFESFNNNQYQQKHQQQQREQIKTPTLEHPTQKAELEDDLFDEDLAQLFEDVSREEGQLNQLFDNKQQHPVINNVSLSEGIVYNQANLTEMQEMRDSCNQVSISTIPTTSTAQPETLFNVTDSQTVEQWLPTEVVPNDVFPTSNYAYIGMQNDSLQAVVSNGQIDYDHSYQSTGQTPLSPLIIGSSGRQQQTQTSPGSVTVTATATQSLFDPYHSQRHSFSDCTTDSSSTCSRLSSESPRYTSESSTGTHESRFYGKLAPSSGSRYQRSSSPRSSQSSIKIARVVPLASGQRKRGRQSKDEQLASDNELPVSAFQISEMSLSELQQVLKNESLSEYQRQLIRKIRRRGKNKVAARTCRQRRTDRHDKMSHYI

[17] = biological target: Nonstructural protein 1 (Influenza A virus, UniProt Q194T2); type: functional, Influenza A virus (A/California/07/2009(H1N1))
Nonstructural protein 1, sequence (Q194T2 whole entry): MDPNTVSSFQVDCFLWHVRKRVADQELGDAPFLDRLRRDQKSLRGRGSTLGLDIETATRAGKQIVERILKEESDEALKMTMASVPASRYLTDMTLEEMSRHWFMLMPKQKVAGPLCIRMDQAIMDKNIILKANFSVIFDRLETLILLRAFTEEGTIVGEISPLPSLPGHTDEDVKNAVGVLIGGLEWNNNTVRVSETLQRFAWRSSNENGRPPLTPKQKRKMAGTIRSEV

Large T antigen, sequence (P03070 whole entry): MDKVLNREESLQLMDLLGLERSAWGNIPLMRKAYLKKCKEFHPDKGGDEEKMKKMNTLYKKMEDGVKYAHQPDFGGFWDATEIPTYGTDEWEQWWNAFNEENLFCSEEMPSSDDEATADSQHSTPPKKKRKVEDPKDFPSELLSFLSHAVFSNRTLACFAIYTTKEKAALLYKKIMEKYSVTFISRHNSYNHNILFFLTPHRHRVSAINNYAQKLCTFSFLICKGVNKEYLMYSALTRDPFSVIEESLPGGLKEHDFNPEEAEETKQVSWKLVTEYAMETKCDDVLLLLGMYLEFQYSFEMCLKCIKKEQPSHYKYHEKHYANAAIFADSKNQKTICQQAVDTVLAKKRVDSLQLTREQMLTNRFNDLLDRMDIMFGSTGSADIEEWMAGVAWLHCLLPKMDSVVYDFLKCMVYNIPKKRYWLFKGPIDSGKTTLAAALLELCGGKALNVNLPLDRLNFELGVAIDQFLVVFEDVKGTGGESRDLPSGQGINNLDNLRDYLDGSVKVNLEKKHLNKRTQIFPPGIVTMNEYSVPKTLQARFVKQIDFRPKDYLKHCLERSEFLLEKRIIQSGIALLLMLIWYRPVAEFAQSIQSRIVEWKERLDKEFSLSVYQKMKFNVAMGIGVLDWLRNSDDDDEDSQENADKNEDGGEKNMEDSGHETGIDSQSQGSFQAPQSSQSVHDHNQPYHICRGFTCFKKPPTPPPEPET

Row | SMILES | GI50 [7] | GI50 [9] | GI50 [10] | further results
1 | CC(Cc1ccccc1Sc1ccc(O)cc1)N(C)C (configuration not stated) | – | – | – | IC50 [1]: 71.9 µM (active)
2 | O=C(c1csnn1)N1CCC2(CC1)CCN(c1ccccn1)CC2 | – | – | – | AC50 [2]: 25.1 µM (inconclusive); AC50 [3]: 20 µM (inconclusive); AC50 [4]: 20 µM (inconclusive)
3 | CCC(=C(c1ccc(OC)cc1)c1ccc(OC)cc1)c1cn(CC(O)CN2CCN(C)CC2)c2ccccc12 (configuration not stated) | – | – | – | EC50 [5]: 6.34 µM (active); EC50 [6]: 7.95 µM (active)
4 | CC(C)CCCCCCCCCCCCC(=O)NCC(=O)NC1C(C)OC(Nc2[nH]cnc3ncnc2-3)C(O)C1O (configuration not stated) | 0.01 µM (active) | 0.01 µM (active) | 0.01 µM (active) | AC50 [8]: < 260 nM (active)
5 | C[N+](C)(C)CCOC(=O)/C=C/c1c[nH]cn1 | > 500 µM (inactive) | > 316 µM (inactive) | > 500 µM (inactive) | –
6 | CN(C)CCOc1cc2c(c3ccccc13)-c1ccccc1C2O (configuration not stated) | 5.02 µM (inactive) | 5.77 µM (inactive) | 6.62 µM (inactive) | –
7 | CC1=CC(=O)C(C(C)C)=C/C1=C(\c1cc(C(C)C)c(OP(=O)(O)O)cc1C)c1ccccc1C(=O)O | – | – | – | IC50 [11]: 33.4 µM (active); AC50 [12]: 2.27 µM (active)
8 | O=S(=O)(O)c1cc(/N=N/c2cc(S(=O)(=O)O)c3ccccc3c2O)ccc1/C=C/c1ccc(/N=N/c2cc(S(=O)(=O)O)c3ccccc3c2O)cc1S(=O)(=O)O | > 100 µM (inactive) | 36.6 µM (inactive) | > 78.9 µM (inactive) | –
9 | C[C@H](CO)N1C[C@H](C)[C@H](CN(C)Cc2ccc(C(=O)Nc3ccccc3N)cc2)Oc2ccc(NC(=O)C3CC3)cc2CC1=O | – | – | – | AC50 [13]: 2.66 µM (active)
10 | Cc1ccc(S(=O)(=O)N(C)C[C@H]2Oc3c(NC(=O)c4nc5ccccc5s4)cccc3C(=O)N([C@H](C)CO)C[C@@H]2C)cc1 | – | – | – | AC50 [13]: 0.839 µM (active)
11 | CSC1SCC2C(=O)N(C)C(C(C)C)C(=O)OCC(NC(=O)c3cnc4ccccc4n3)C(=O)NC(C)C(=O)N(C)C1C(=O)N(C)C(C(C)C)C(=O)OCC(NC(=O)c1cnc3ccccc3n1)C(=O)NC(C)C(=O)N2C (configuration not stated) | 0.0075 µM (active) | 9.55e-05 µM (active) | 0.0075 µM (active) | AC50 [14]: < 260 nM (active); AC50 [15]: < 260 nM (active); IC50 [16]: 81.5 µM (inactive)
12 | O=CC(NC(=O)N(CCCl)N=O)C(O)C(O)C(O)CO (configuration not stated) | 97.7 µM (inactive) | 79.6 µM (inactive) | 760 µM (inactive) | –
13 | CN(C)C(=O)Oc1c(Br)cc(Br)cc1C(=O)OCc1ccccc1 | 17.9 µM (inactive) | 16 µM (inactive) | 28.4 µM (inactive) | –
14 | CC(=O)c1c(O)n(Nc2nc(C)cc(C)n2)c(C)cc1=O | – | – | – | IC50 [17]: 12.9 µM (active)
15 | O=C(OC[C@H]1O[C@@H](OC(=O)c2cc(O)c(O)c(OC(=O)c3cc(O)c(O)c(O)c3)c2)[C@H](OC(=O)c2cc(O)c(O)c(OC(=O)c3cc(O)c(O)c(O)c3)c2)[C@@H](OC(=O)c2cc(O)c(O)c(OC(=O)c3cc(O)c(O)c(O)c3)c2)[C@@H]1OC(=O)c1cc(O)c(O)c(OC(=O)c2cc(O)c(O)c(O)c2)c1)c1cc(O)c(O)c(OC(=O)c2cc(O)c(O)c(O)c2)c1 [TANNIC ACID] | – | – | – | IC50 [1]: < 0.16 µM (active)
